Tests used:
KRas G12D = KRas G12D (Homo sapiens, UniProt P01116, G12D); assay: biochemical; settings: Binding to KRas (IC50 nM) G12D, TR-FRET displacement, KRas G12D
KRas G13D = KRas G13D (Homo sapiens, UniProt P01116, G13D); format: binding; settings: TR-FRET displacement, read-out: Binding to KRas (IC50 nM) G13D
KRas G12C = KRas G12C (Homo sapiens, UniProt P01116, G12C); format: binding; settings: TR-FRET displacement, read-out: Binding to KRas (IC50 nM) G12C
KRas Q61H = KRas Q61H (Homo sapiens, UniProt P01116, Q61H); assay: KRas binding assay (TR-FRET displacement), KRas Q61H; settings: TR-FRET displacement
Chain of KRas Q61H (P01116 1-169 isoform P01116-2 Q61H): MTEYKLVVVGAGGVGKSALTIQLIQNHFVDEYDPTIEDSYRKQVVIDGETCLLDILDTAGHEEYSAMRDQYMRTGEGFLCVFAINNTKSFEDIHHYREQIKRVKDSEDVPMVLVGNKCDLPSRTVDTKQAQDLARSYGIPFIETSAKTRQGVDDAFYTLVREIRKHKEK

KRas G12V = KRas G12V (Homo sapiens, UniProt P01116, G12V); assay: biochemical; settings: Binding to KRas (IC50 nM) G12V, TR-FRET displacement, KRas G12V
Chain of KRas G12V (P01116 1-169 isoform P01116-2 G12V): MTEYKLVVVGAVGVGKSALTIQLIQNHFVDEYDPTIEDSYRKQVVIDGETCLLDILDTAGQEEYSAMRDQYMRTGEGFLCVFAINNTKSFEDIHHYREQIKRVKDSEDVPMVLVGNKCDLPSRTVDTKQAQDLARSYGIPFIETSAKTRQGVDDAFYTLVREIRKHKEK

KRas G12S = KRas G12S (Homo sapiens, UniProt P01116, G12S); format: binding; settings: TR-FRET displacement, read-out: Binding to KRas (IC50 nM) G12S
Chain of KRas G12S (P01116 1-169 isoform P01116-2 G12S): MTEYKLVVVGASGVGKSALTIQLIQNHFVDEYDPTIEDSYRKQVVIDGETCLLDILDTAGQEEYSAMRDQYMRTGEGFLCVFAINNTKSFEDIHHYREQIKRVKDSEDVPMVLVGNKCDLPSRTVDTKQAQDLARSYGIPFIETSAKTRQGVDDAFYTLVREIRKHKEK

KRas G12A = KRas G12A (Homo sapiens, UniProt P01116, G12A); format: binding; settings: TR-FRET displacement, read-out: Binding to KRas (IC50 nM) G12A
Chain of KRas G12A (P01116 1-169 isoform P01116-2 G12A): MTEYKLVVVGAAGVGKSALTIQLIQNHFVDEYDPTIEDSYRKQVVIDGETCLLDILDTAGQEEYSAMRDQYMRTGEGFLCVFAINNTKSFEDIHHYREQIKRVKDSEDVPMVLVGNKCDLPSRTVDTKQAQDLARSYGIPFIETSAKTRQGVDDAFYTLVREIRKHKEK

KRas WT = KRas WT (Homo sapiens, UniProt P01116); assay: KRas binding assay (TR-FRET displacement), KRas WT; settings: TR-FRET displacement
Chain of KRas WT (P01116 1-169 isoform P01116-2): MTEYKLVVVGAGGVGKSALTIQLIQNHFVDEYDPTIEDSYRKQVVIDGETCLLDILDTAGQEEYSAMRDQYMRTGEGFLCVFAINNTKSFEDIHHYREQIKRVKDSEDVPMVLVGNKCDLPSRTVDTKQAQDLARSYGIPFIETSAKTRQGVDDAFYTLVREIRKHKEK

Chain of KRas G12C (P01116 1-169 isoform P01116-2 G12C): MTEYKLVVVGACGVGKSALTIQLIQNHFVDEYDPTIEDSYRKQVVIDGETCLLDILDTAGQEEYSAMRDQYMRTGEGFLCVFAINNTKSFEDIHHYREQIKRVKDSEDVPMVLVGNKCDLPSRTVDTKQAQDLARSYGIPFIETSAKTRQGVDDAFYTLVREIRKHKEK
Chain of KRas G12D (P01116 1-169 isoform P01116-2 G12D): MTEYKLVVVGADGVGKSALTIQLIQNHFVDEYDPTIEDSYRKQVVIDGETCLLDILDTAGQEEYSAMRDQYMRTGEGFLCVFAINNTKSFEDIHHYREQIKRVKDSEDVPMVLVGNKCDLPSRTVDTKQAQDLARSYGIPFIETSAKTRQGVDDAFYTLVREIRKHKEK
Chain of KRas G13D (P01116 1-169 isoform P01116-2 G13D): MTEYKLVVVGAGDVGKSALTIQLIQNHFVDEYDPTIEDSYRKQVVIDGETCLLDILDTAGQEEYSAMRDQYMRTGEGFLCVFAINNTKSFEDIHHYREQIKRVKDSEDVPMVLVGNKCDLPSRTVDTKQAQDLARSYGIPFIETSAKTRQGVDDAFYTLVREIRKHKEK

SMILES	IC50 (KRas G12D) [nM]	IC50 (KRas G13D) [nM]	IC50 (KRas G12C) [nM]	IC50 (KRas Q61H) [nM]	IC50 (KRas G12V) [nM]	IC50 (KRas G12S) [nM]	IC50 (KRas G12A) [nM]	IC50 (KRas WT) [nM]
CCc1cccc2cccc(N3CCc4c(nc(OCC5(CN(C)C)CC5)nc4NCc4nnnn4C4CCC4)C3)c12 [Example 533, N-((1-cyclobutyl-1H-tetrazol-5-yl)methyl)-2-((1-((dimethylamino)methyl)cyclopropyl)methoxy)-7-(8-ethylnaphthalen-1-yl)-5,6,7,8-tetrahydropyrido[3,4-d]pyrimidin-4-amine]	7360	12300	3860	9980	2680	4920	5970	7620
CCc1cccc2cccc(N3CCc4c(nc(OCC5(CN(C)C)CC5)nc4N4Cc5cn[nH]c5CC(C)C4)C3)c12 (stereo not drawn) [Example 534, 1-(1-(((7-(8-ethylnaphthalen-1-yl)-4-(7-methyl-4,6,7,8-tetrahydropyrazolo[4,3-c]azepin-5(1H)-yl)-5,6,7,8-tetrahydropyrido[3,4-d]pyrimidin-2-yl)oxy)methyl)cyclopropyl)-N,N-dimethylmethanamine]	7370	18200	4900	14600	3540	9330	9380	12100
CCc1cccc2cccc(N3CCc4c(nc(OCC5(CN(C)C)CC5)nc4N4CCCC(n5ccc(C)n5)C4)C3)c12 (stereo not drawn) [Example 535, 1-(1-(((7-(8-ethylnaphthalen-1-yl)-4-(3-(3-methyl-1H-pyrazol-1-yl)piperidin-1-yl)-5,6,7,8-tetrahydropyrido[3,4-d]pyrimidin-2-yl)oxy)methyl)cyclopropyl)-N,N-dimethylmethanamine]	7570	6190	1830	6460	4710	5060	2980	5320
CCc1cccc2cccc(N3CCc4c(nc(OCC5(CN(C)C)CC5)nc4N4CCN(C(=O)c5c[nH]c(=O)[nH]5)CC4)C3)c12 [Example 536, 4-(4-(2-((1-((dimethylamino)methyl)cyclopropyl)methoxy)-7-(8-ethylnaphthalen-1-yl)-5,6,7,8-tetrahydropyrido[3,4-d]pyrimidin-4-yl)piperazine-1-carbonyl)-1,3-dihydro-2H-imidazol-2-one]	7950	3080	4650	2170	3020	7720	4690	3050
CCc1cccc2cccc(N3CCc4c(nc(OCC5(CN(C)C)CC5)nc4N(C)Cc4nnnn4C)C3)c12 [Example 537, 2-((1-((dimethylamino)methyl)cyclopropyl)methoxy)-7-(8-ethylnaphthalen-1-yl)-N-methyl-N-((1-methyl-1H-tetrazol-5-yl)methyl)-5,6,7,8-tetrahydropyrido[3,4-d]pyrimidin-4-amine]	8520	> 100000	3700	> 100000	3180	5660	43500	26700
CCc1cccc2cccc(N3CCc4c(nc(OCC5(CN(C)C)CC5)nc4N(C)Cc4nnc5n4CCOC5)C3)c12 [Example 538, N-((5,6-dihydro-8H-[1,2,4]triazolo[3,4-c][1,4]oxazin-3-yl)methyl)-2-((1-((dimethylamino)methyl)cyclopropyl)methoxy)-7-(8-ethylnaphthalen-1-yl)-N-methyl-5,6,7,8-tetrahydropyrido[3,4-d]pyrimidin-4-amine]	9040	4360	1330	4350	1860	2780	2530	3000
CCc1cccc2cccc(N3CCc4c(nc(OCC5(CN(C)C)CC5)nc4NCc4cc(CO)[nH]n4)C3)c12 [Example 539, (3-(((2-((1-((dimethylamino)methyl)cyclopropyl)methoxy)-7-(8-ethylnaphthalen-1-yl)-5,6,7,8-tetrahydropyrido[3,4-d]pyrimidin-4-yl)amino)methyl)-1H-pyrazol-5-yl)methanol]	9320	42200	8970	41300	5880	20700	17100	19900
CCc1cccc2cccc(N3CCc4c(nc(OCC5(CN(C)C)CC5)nc4N4CC(CO)OC(C(F)(F)F)C4)C3)c12 (stereo not drawn) [Example 540, (4-(2-((1-((dimethylamino)methyl)cyclopropyl)methoxy)-7-(8-ethylnaphthalen-1-yl)-5,6,7,8-tetrahydropyrido[3,4-d]pyrimidin-4-yl)-6-(trifluoromethyl)morpholin-2-yl)methanol]	9350	8850	1840	7730	1720	3750	3280	5810
CCc1cccc2cccc(N3CCc4c(nc(OCC5(CN(C)C)CC5)nc4NCc4ccnn4C4CC4(F)F)C3)c12 (stereo not drawn) [Example 541, N-((1-(2,2-difluorocyclopropyl)-1H-pyrazol-5-yl)methyl)-2-((1-((dimethylamino)methyl)cyclopropyl)methoxy)-7-(8-ethylnaphthalen-1-yl)-5,6,7,8-tetrahydropyrido[3,4-d]pyrimidin-4-amine]	10000	200	165	298	5980	169	259	256
CCc1cccc2cccc(N3CCc4c(nc(OCC5(CN(C)C)CC5)nc4NC4CCCc5[nH]ncc54)C3)c12 (stereo not drawn) [Example 542, 2-((1-((dimethylamino)methyl)cyclopropyl)methoxy)-7-(8-ethylnaphthalen-1-yl)-N-(4,5,6,7-tetrahydro-1H-indazol-4-yl)-5,6,7,8-tetrahydropyrido[3,4-d]pyrimidin-4-amine]	11600	15800	2890	18300	5370	5830	5740	10400
CCc1cccc2cccc(N3CCc4c(nc(OCC5(CN(C)C)CC5)nc4N4CCC(F)C(OC)C4)C3)c12 (stereo not drawn) [Example 543, 1-(1-(((7-(8-ethylnaphthalen-1-yl)-4-(4-fluoro-3-methoxypiperidin-1-yl)-5,6,7,8-tetrahydropyrido[3,4-d]pyrimidin-2-yl)oxy)methyl)cyclopropyl)-N,N-dimethylmethanamine]	12100	2270	634	2400	3940	750	1200	1500
CCc1cccc2cccc(N3CCc4c(nc(OCC5(CN(C)C)CC5)nc4N4CCOC(C(F)F)CC4)C3)c12 (stereo not drawn) [Example 544, 1-(1-(((4-(7-(difluoromethyl)-1,4-oxazepan-4-yl)-7-(8-ethylnaphthalen-1-yl)-5,6,7,8-tetrahydropyrido[3,4-d]pyrimidin-2-yl)oxy)methyl)cyclopropyl)-N,N-dimethylmethanamine]	21100	112	180	121	14500	204	291	327
CCc1cccc2cccc(N3CCc4c(nc(OCC5(CN(C)C)CC5)nc4N4CCCC(c5n[nH]cc5NC(C)=O)C4)C3)c12 (stereo not drawn) [Example 545, N-(3-(1-(2-((1-((dimethylamino)methyl)cyclopropyl)methoxy)-7-(8-ethylnaphthalen-1-yl)-5,6,7,8-tetrahydropyrido[3,4-d]pyrimidin-4-yl)piperidin-3-yl)-1H-pyrazol-4-yl)acetamide]	13100	8090	4780	5900	6080	5000	4750	7230
CCc1cccc2cccc(N3CCc4c(nc(OCC5(CN(C)C)CC5)nc4N4CCOC(CNC(=O)NC)C4)C3)c12 (stereo not drawn) [Example 546, 1-((4-(2-((1-((dimethylamino)methyl)cyclopropyl)methoxy)-7-(8-ethylnaphthalen-1-yl)-5,6,7,8-tetrahydropyrido[3,4-d]pyrimidin-4-yl)morpholin-2-yl)methyl)-3-methylurea]	13600	4620	2630	3310	4640	3570	3800	2640
CCc1cccc2cccc(N3CCc4c(nc(OCC5(CN(C)C)CC5)nc4NCCC4CC(C)(C)NC4=O)C3)c12 (stereo not drawn) [Example 547, 3-(2-((2-((1-((dimethylamino)methyl)cyclopropyl)methoxy)-7-(8-ethylnaphthalen-1-yl)-5,6,7,8-tetrahydropyrido[3,4-d]pyrimidin-4-yl)amino)ethyl)-5,5-dimethylpyrrolidin-2-one]	15900	680	622	784	2320	707	798	667

— patent publication US20250368649A1, “TETRAHYDROPYRIDOPYRIMIDINE PAN-KRAS INHIBITORS” (Mirati Therapeutics, Inc., priority 2022, published 2025)
